In one data set the test system is Human preadipocytes. Kind of data set: Fat breakdown stimulation: triglyceride accumulation in adipocytes (oil red staining, colorimetry). The format is cell-based. The following applies: for effect of stimulating fat metabolism: conclusion from Table 2, 50 μM, 5 days; for Triglyceride accumulation: relative to untreated adipocytes (100), 50 μM test substance, 5 days incubation. As to the method:
Human preadipocytes (available from TOYOBO Co., LTD.) were seeded on a 96-well microplate and were incubated at 37° C. and 5% CO2 using human preadipocyte growth medium TAGM (available from TOYOBO Co., LTD.) while renewing the medium every two days. The growth medium was changed to human adipocyte differentiation medium TADM (available from TOYOBO Co., LTD.), and incubation was carried out for 5 days. Subsequently, the medium was changed to an evaluation medium as shown in Table 1 below without or with 50 μM of any of the test substances described below. The incubation was carried out for 5 days.
The adipocytes were washed with Dulbecco's PBS (−) three times and were formalin fixed. The adipocytes were stained with an oil red/water-isopropanol (1/1) solution, and were extracted with isopropanol. Triglyceride accumulated in the adipocytes was determined by a colorimetry method.

A short description of data set [1]: Percutaneous absorption through three-dimensional human skin model, two-chamber test. The data set is classed as in vitro ADME. The following applies: 0.3% by mass solution, pH 7, 35° C., after 24 hours; compared with L-carnitine palmitate; FIG. 1. On the procedure:
The test substances were each dissolved in Dulbecco's PBS (−) containing 5% by mass of 1,2-hexanediol, followed by adding 1N NaOH to adjust the pH to 7. Consequently, 0.3% by mass solutions of the test substances were prepared. Two chambers were separated through a three-dimensional model of human skin tissue (TESTSKIN™ LSD-d, available from TOYOBO CO., LTD.). 3 ml of each test substance solution was placed into a chamber on the epidermis side, and 3 ml of Dulbecco's PBS (−) was placed into a chamber on the dermis side. They were stirred with magnetic stirrers at 35° C. for 24 hours.
After the lapse of 24 hours, 1 ml of the buffer solution in the dermis-side chamber was collected, and 0.5 ml of the solution collected was analyzed to determine free carnitine. The remaining portion of the solution collected was adjusted to pH 11 with 1N NaOH, was encapsulated in a 1.5 ml screw vial, and was allowed to stand at 80° C. for 6 hours, followed by cooling. The pH of the solution was adjusted to 7 with 1N HCl, whereby all acylcarnitine derivatives were decomposed to free carnitine. These solutions were each combined with 0.02 ml of 1N hydrochloric acid, 0.1 ml of 1.6% by mass 1-aminoanthracene-in acetone solution and 0.1 ml of 16% by mass aqueous EDC (1-ethyl-3-(3-dimethylaminopropyl)carbodiimide hydrochloride) solution, followed by sufficient stirring. The solutions were allowed to stand still at room temperature for 20 minutes and were washed with 3 ml of diethylether. The aqueous phases were filtered and were analyzed by reversed-phase high performance liquid chromatography (RPHPLC) (column: Phenomenex Synergi-RP, eluting solution: 45% acetonitrile, flow rate: 1.0 ml/min) to determine peak intensities assigned to 1-aminoanthracene-modified carnitine (excitation wavelength: 248 nm, fluorescent wavelength: 418 nm). The concentrations of carnitine derivatives and free carnitine originating from the test substances in the solution in the dermis-side chamber were calculated and determined from the aforesaid peak intensities. […]

Data set [2] is described as follows: Stability of carnitine derivatives in aqueous solution at 80° C. (RPHPLC). As to conditions: 0.3% by mass in PBS(-) with 5% 1,2-hexanediol, pH 7, 80° C.; changes with time; FIG. 2. The format is physicochemical. As to the method:
The test substances were each dissolved in Dulbecco's PBS (−) containing 5% by mass of 1,2-hexanediol, followed by adding 1N NaOH to adjust the pH to 7. Consequently, 0.3% by mass solutions of the test substances were prepared. The solutions were tightly encapsulated in glass vials and were temperature controlled at 80° C. in a water bath.
After the lapse of a predetermined time, the solutions were collected and were analyzed by RPHPLC (column: Shodex C8-5B, eluting solution: 70% acetonitrile, flow rate: 1.0 ml/min). The remaining carnitine derivatives originating from the test substances were determined from the UV absorption intensity at 210 nm.

Structures can show the parent of a compound that is named as a salt.

As to `CCCCCCC(CCCC)C(=O)OC(CC(=O)[O-])C[N+](C)(C)C` [L-carnitine 2-butyloctanoate hydrochloride], in the data set on Human preadipocytes, the “effect of stimulating fat metabolism” value was “good effects of stimulating fat metabolism” and the Triglyceride accumulation was 90. The “L-carnitine concentration (carnitine derivatives and free carnitine) passed to the dermis-side chamber” value in data set [1] was “comparable or higher L-carnitine concentrations than that obtained with L-carnitine palmitate”. Besides, the “residual ratio of carnitine derivatives in aqueous solution” value (“residual ratio of carnitine derivatives” below) in data set [2] was “higher residual ratio and were exceptionally more stable in aqueous solutions than the acylcarnitines having a straight-chain acyl group”.
In turn, `C[N+](C)(C)C[C@H](O)CC(=O)[O-].Cl` [L-carnitine hydrochloride, reference compound] showed a Triglyceride accumulation with Human preadipocytes of 98.
With `CCCCCCCCC(CCCCCC)C(=O)OC(CC(=O)[O-])C[N+](C)(C)C` [L-carnitine 2-hexyldecanoate hydrochloride], in the data set with Human preadipocytes, the “effect of stimulating fat metabolism” value is given as “good effects of stimulating fat metabolism” and the Triglyceride accumulation came out at 89. Besides, in data set [1], the “L-carnitine concentration (carnitine derivatives and free carnitine) passed to the dermis-side chamber” value is on record as “comparable or higher L-carnitine concentrations than that obtained with L-carnitine palmitate”. Moreover, the “residual ratio of carnitine derivatives” value in data set [2] was “higher residual ratio and were exceptionally more stable in aqueous solutions than the acylcarnitines having a straight-chain acyl group”.
`CCCCCCCCCCCCCCCC(=O)O[C@H](CC(=O)[O-])C[N+](C)(C)C.Cl` [L-carnitine palmitate hydrochloride, reference compound]: the Triglyceride accumulation in the data set with Human preadipocytes is recorded as 87.
Regarding `CCCCCCCCCCCCCCC(C)C(=O)OC(CC(=O)[O-])C[N+](C)(C)C` [L-carnitine 2-methylpalmitate hydrochloride], in the data set with Human preadipocytes, the “effect of stimulating fat metabolism” value was “good effects of stimulating fat metabolism” and the Triglyceride accumulation is reported as 89. Moreover, the “L-carnitine concentration (carnitine derivatives and free carnitine) passed to the dermis-side chamber” value in data set [1] is “comparable or higher L-carnitine concentrations than that obtained with L-carnitine palmitate”. The “residual ratio of carnitine derivatives” value in data set [2] was “higher residual ratio and were exceptionally more stable in aqueous solutions than the acylcarnitines having a straight-chain acyl group”.

These data come from patent US7842726B2, “Carnitine derivative, salt thereof, external skin preparation and cosmetic material” (Showa Denko K.K., priority 2005, dated 2010).
